Our source for the EC50 values is patent US7538135B2, “Benzenesulfonylamino compounds and pharmaceutical compositions containing these compounds” (Novartis AG, priority 2003, dated 2009).

For one assay, the target named is T1, GST-hPPARγ LBD (Homo sapiens, UniProt P37231).
T1 construct: GST-hPPARγ LBD (amino acids 175-476); made in house; host or cells: E. coli BL21(DE3)
T1 sequence (P37231 175-476 isoform P37231-2): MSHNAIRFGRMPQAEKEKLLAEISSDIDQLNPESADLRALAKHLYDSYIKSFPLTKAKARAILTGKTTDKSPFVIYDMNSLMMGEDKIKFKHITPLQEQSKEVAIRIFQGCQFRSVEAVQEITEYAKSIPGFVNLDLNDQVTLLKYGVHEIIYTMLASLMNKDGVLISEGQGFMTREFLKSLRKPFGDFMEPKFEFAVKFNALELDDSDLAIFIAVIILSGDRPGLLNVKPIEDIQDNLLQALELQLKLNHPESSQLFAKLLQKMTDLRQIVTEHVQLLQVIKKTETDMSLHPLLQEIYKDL
T1 sequence (Q15788 676-700 partner limits assumed): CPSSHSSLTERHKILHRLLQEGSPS
Description: PPARγ receptor binding assay (CARLA, TR-FRET functional binding). The settings on record: TR-FRET coactivator (SRC-1 peptide) recruitment, 3 hours at room temperature. In kind it is biochemical. On the procedure:
(§1) The in vitro functional binding to the PPARα, PPARδ and PPARγ receptors is determined as follows:
(§2) The functional binding assays for the PPARα, PPARδ and PPARγ receptors are a variation of the coactivator-dependent receptor ligand assay (CARLA) (see Krey et al., “Fatty Acids, Eicosanoids, and Hypolipidemic Agents Identified as Ligands of Peroxisome Proliferator-Activated Receptors by Coactivator-Dependent Receptor Ligand Assay”, Molecular Endocrinology, Vol. 11, pp. 779-791 (1997)). The present CARLA assays use a TR-FRET detection method previously reviewed (see Hemmila, “LANCE: Homogeneous Assay Platform for HTS”, J. Biomol. Screening, Vol. 4, pp. 303-307 (1999); Mathis, “HTRF Technology”, J. Biomol. Screening, Vol. 4, pp. 309-313 (1999)). […] This brings the Eu-labeled anti-GST antibody and the strepavidin-labeled APC in close proximity, thereby facilitating fluorescence energy transfer. […] After mixing all components, the reaction mixture stands for 3 hours at room temperature before reading the TR-FRET (Time-Resolved Fluorescence Resonance Energy Transfer) signal on a Wallac Victor 2 plate reader (measuring the ratio of signals at […]). […]
For orientation: TR-FRET usually uses a lanthanide donor and a delayed reading to cut background.

A further assay addresses T2, GST-hPPARα LBD (Homo sapiens, UniProt Q07869).
T2 construct: made in house; host or cells: E. coli BL21(DE3)
T2 sequence (Q07869 167-468): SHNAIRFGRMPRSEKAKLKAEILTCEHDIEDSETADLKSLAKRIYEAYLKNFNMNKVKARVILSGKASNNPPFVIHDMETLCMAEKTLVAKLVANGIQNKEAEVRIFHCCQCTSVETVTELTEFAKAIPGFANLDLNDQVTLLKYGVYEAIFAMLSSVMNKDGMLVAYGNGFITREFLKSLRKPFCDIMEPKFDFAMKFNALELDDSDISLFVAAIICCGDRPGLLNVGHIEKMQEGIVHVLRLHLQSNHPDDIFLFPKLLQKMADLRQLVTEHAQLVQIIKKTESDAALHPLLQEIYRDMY
T2 sequence (Q15788 676-700 partner limits assumed): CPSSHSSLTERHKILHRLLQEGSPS
Nature of the assay: PPARα receptor binding assay (CARLA, TR-FRET functional binding). As to conditions: TR-FRET coactivator (SRC-1 peptide) recruitment, 3 hours at room temperature. In kind it is biochemical. As for the experimental part: as §1, §2

By EC50 is commonly meant the concentration needed to bring the measured effect to its halfway point. A lower EC50 goes with higher potency in that assay. Consider `CCOC(=O)c1cn(CC)nc1NS(=O)(=O)c1ccc(OCc2nc(-c3ccc(C(F)(F)F)cc3)oc2C)cc1` [Example 1, 1-Ethyl-3-{4-[5-methyl-2-(4-trifluoromethyl-phenyl)oxazol-4-ylmethoxy]-benzene-sulfonylamino}-1H-pyrazole-4-carboxylic acid ethyl ester], for which the results for the EC50 at GST-hPPARγ LBD and at GST-hPPARα LBD were approximately 3 nM and approximately 5 nM, respectively.
